Experimental data reported in ChEMBL document CHEMBL1201862, “PubChem BioAssay data set” (2004).
Activity calls are given as the source filed them.

How the values were obtained:
[1] = biological target: T1, Nuclear receptor subfamily 0 group B member 1 (Homo sapiens, UniProt P51843); type: functional, cell-based;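 further: HEK293T cells transfected with SF-1 and DAX-1 plus StAR promoter luciferase reporter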
T1 sequence (P51843 whole entry): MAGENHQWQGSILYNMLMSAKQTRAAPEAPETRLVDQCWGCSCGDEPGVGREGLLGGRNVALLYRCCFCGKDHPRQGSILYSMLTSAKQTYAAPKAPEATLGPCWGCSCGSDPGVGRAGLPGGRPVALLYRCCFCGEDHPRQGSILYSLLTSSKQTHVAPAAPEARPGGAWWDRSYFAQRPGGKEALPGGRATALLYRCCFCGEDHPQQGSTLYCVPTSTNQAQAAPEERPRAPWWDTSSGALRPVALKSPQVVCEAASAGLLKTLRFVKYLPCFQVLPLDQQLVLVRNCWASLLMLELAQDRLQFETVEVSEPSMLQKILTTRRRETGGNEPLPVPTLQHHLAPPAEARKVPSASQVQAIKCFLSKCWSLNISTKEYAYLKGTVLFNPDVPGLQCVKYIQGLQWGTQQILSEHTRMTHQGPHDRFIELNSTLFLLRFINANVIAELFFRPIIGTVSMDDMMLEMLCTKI

cells [2] = type: functional, cell-based
Orexin receptor type 2 [3] = biological target: T2, Orexin receptor type 2 (Homo sapiens, UniProt O43614); experiment: Counterscreen assay for antagonists of the orexin 1 receptor (OX1R; HCRTR1): Homogeneous Time Resolved Fluorescence (HTRF)-based cell-based dose response assay for antagonists of the orexin 2 receptor (OX2R; HCRTR2), run by assay provider.; type: functional
T2 sequence (O43614 whole entry): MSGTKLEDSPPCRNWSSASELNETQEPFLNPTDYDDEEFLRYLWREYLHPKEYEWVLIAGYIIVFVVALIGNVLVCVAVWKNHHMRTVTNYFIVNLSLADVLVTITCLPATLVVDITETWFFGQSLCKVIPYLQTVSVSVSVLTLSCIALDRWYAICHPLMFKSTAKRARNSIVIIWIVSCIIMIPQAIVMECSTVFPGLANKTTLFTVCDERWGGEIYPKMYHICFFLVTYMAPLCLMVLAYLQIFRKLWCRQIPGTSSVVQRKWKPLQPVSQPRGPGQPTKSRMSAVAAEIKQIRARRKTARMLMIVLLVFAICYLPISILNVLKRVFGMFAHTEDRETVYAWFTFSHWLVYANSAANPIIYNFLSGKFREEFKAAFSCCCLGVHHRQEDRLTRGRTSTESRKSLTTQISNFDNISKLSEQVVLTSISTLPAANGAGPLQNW

H4 = experiment: Luminescence Cell-Based Dose Response HTS to Identify Activators of 5'UTR Stem-Loop Driven Prion Protein mRNA Translation in H4 Neuroglioblastoma Cells. [Related pubchem assays: 1829 (Project Summary), 1814 (Primary HTS)]; type: functional; details: Homo sapiens
[4] = biological target: T3, Orexin/Hypocretin receptor type 1 (Homo sapiens, UniProt O43613); experiment: Homogeneous Time Resolved Fluorescence (HTRF)-based cell-based high throughput dose response assay for antagonists of the orexin 1 receptor (OX1R; HCRTR1). [Related pubchem assays (depositor defined):AID434989, AID435008, AID463079, AID485270, AID492963, AID492964, AID492965, AID493232, AID504717, AID504718]; type: functional
T3 sequence (O43613 whole entry): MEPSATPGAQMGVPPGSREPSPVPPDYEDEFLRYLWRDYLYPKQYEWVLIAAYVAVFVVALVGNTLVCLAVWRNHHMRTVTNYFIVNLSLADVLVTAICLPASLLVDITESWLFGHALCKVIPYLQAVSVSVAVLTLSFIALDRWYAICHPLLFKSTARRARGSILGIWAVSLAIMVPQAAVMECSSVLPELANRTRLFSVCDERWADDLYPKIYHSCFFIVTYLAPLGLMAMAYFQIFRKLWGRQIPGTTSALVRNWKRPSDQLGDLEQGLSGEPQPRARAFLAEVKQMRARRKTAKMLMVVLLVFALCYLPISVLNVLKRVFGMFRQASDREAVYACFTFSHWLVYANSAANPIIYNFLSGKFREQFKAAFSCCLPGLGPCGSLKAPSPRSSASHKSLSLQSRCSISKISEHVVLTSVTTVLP

CHO-K1 = experiment: (§1) Counterscreen for antagonists of the orexin 1 receptor (OX1R; HCRTR1): Homogeneous time resolved fluorescence (HTRF)-based cell-based dose response assay to identify antagonists of the parental CHO-K1 cell line. [Related pubchem assays (depositor defined):AID434989, AID435008, AID463079, AID485270, AID492963, AID492964, AID492965, AID493232, AID504699, AID504701]; type: functional; details: Cricetulus griseus
[5] = as §1, with “Fluorescence-based” for “Homogeneous time resolved fluorescence (HTRF)-based”, “cell-based high throughput” for “cell-based”, “CHO” for “CHO-K1”; type: functional
[6] = biological target: T3, Orexin/Hypocretin receptor type 1; experiment: Fluorescence-based cell-based high throughput dose response assay for antagonists of the orexin 1 receptor (OX1R; HCRTR1). [Related pubchem assays (depositor defined):AID434989, AID435008, AID463079, AID485270, AID492963, AID492964, AID492965, AID493232, AID504717, AID504718]; type: functional
Orexin receptor type 2 [7] = biological target: T2, Orexin receptor type 2; experiment: Counterscreen assay for antagonists of the orexin 1 receptor (OX1R; HCRTR1): Fluorescence-based cell-based dose response assay for antagonists of the orexin 2 receptor (OX2R; HCRTR2), run by assay provider.; type: functional
cells [8] = type: functional
[9] = biological target: T4, DNA repair protein RAD52 homolog (Homo sapiens, UniProt P43351); type: functional, biochemical
T4 sequence (P43351 whole entry): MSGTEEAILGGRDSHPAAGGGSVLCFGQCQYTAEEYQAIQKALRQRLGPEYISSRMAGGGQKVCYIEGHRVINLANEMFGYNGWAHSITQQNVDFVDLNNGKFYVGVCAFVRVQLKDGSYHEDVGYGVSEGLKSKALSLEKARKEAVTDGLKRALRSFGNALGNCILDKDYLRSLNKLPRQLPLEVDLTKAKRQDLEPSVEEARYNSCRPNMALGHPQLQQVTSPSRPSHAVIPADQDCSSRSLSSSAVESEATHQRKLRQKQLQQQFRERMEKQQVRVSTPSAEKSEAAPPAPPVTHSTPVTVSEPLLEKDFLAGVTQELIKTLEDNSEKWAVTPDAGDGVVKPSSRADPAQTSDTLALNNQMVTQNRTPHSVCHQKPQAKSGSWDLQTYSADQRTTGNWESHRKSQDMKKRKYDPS

Q: With `CNc1nnc(SCC(=O)c2cc(C)n(C3CC3)c2C)s1` as the molecule, how does the IC50 [1] read?
A: > 67.5 µM (inactive)

Q: And the IC50 (cells [2])?
A: > 67.5 µM (inactive)

Q: Which IC50 (Orexin receptor type 2 [3]) does the source give for `Nc1nc(-c2sc3nc4c(cc3c2N)CCCC4)nc(N2CCOCC2)n1` here?
A: > 50 µM (inactive)

Q: And the EC50 (H4)?
A: > 120 µM (not active)

Q: What about the IC50 [4] of the same molecule?
A: 0.797 µM (active)

Q: And the IC50 (CHO-K1)?
A: > 66.2 µM (inactive)

Q: What about the IC50 [5] of the same molecule?
A: > 49.8 µM (inactive)

Q: And the IC50 [6]?
A: 5.52 µM (active)

Q: What about the IC50 (Orexin receptor type 2 [7]) of the same molecule?
A: > 88.8 µM (inactive)

Q: For `Cc1cc(C(=O)NCc2cccc(Cl)c2)c2ccccc2n1`, which IC50 (Orexin receptor type 2 [3]) is on record?
A: 7.59 µM (active)

Q: What about the IC50 [4] of the same molecule?
A: 0.976 µM (active)

Q: And the IC50 (CHO-K1)?
A: > 66.2 µM (inactive)

Q: What about the IC50 [5] of the same molecule?
A: > 49.7 µM (inactive)

Q: What about the IC50 [6] of the same molecule?
A: 12.6 µM (inactive)

Q: And the IC50 (Orexin receptor type 2 [7])?
A: > 88.8 µM (inactive)

Q: For `COc1ccccc1C(=O)Nc1nc2cc3c(cc2s1)OCCO3`, which IC50 (Orexin receptor type 2 [3]) is on record?
A: > 50 µM (inactive)

Q: And the IC50 [4]?
A: 1.95 µM (active)

Q: What about the IC50 (CHO-K1) of the same molecule?
A: > 66.2 µM (inactive)

Q: What about the IC50 [5] of the same molecule?
A: > 49.8 µM (inactive)

Q: And the IC50 [6]?
A: 6.51 µM (active)

Q: What about the IC50 (Orexin receptor type 2 [7]) of the same molecule?
A: > 88.8 µM (inactive)

Q: Which IC50 (Orexin receptor type 2 [3]) does the source give for `CCOC(=O)c1c(C)nc2c3ccccc3ccn12` here?
A: 30 µM (inactive)

Q: What about the IC50 [4] of the same molecule?
A: 3.62 µM (active)

Q: What about the IC50 (CHO-K1) of the same molecule?
A: > 66.3 µM (inactive)

Q: What about the IC50 (cells [8]) of the same molecule?
A: 37.3 µM (active)

Q: And the IC50 [5]?
A: > 49.8 µM (inactive)

Q: And the IC50 [6]?
A: 32.9 µM (inactive)

Q: And the IC50 (Orexin receptor type 2 [7])?
A: > 88.8 µM (inactive)

Q: With `CCOC(=O)c1c(C)n(-c2ccc(C)cc2)c2ccc(OCC(O)CN3CCN(C)CC3)cc12` (centres undefined) as the molecule, how does the AC50 [9] read?
A: 6.54 µM (active)
